Values quoted from earlier work as cited in patent US20170326139A1, “COMBINATION THERAPY FOR MALE SEXUAL DYSFUNCTION” (priority 2016, published 2017).
Read-outs that look alike come from different tables or passages of the source.

Tests used:
[1] = system: premature ejaculation
[2] = system: premature ejaculation; remark: listed apart in the source
[3] = system: premature ejaculation; settings: in vivo

SMILES: CN(C)CCCN1c2ccccc2CCc2ccc(Cl)cc21 [clomipramine]
- effect in treating PE ([1]; inhaled (nasal) 4 mg or 5 mg on-demand, e.g. one hour pre-coitus): effective in treating PE
- effect on IELT ([1]; orally administered daily at 10 to 50 mg per day): effectively increase IELT

SMILES: CCCc1nn(C)c2c(=O)[nH]c(-c3cc(S(=O)(=O)N4CCN(C)CC4)ccc3OCC)nc12 [sildenafil]
- effect on PE versus placebo ([2]; sildenafil 50 mg pre-coitus administered alone): no better than placebo
- IELT ([2]; sildenafil 50 mg pre-coitus combined with behavioral psychotherapy): about 3.63 minutes

SMILES: CNCC[C@H](Oc1cccc2ccccc12)c1cccs1 [duloxetine]
- effect on IELT [3]: some positive effect on IELT
